The source made the active and inactive calls. No cut-off for these calls is given here.
Columns and labels:
[1] = target: Tyrosine-protein kinase HCK (Homo sapiens, UniProt P08631)
[2] = target: Proto-oncogene tyrosine-protein kinase Src (Homo sapiens, UniProt P12931)
[3] = target: Vascular endothelial growth factor receptor 2 (Homo sapiens, UniProt P35968)
[4] = target: T1, Tyrosine-protein kinase Lck (Homo sapiens, UniProt P06239)
Liver microsomes = conditions: rat
Description: Clearance in rat liver microsomes

in vitro = conditions: rat, liver microsomes
Description: Half life in rat liver microsomes

Mus musculus [5] = test: Immunosuppressive activity in BALB/c mouse assessed as CD3 antibody-induced IL2 production at 30 mg/kg, po relative to control; format: functional
[6] = target: Tyrosine-protein kinase ZAP-70 (Homo sapiens, UniProt P43403); test: Inhibition of ZAP70
[7] = target: Fibroblast growth factor receptor 3 (Homo sapiens, UniProt P22607); test: Inhibition of FGFR3K
[8] = target: Mast/stem cell growth factor receptor Kit (Homo sapiens, UniProt P10721); test: Inhibition of cKIt
[9] = target: Platelet-derived growth factor receptor alpha (Homo sapiens, UniProt P16234); test: Inhibition of PDGFRalpha
[10] = Half life in rat; format: ADME, organism-based; conditions: in vivo
[11] = target: Tyrosine-protein kinase ABL1 (Homo sapiens, UniProt P00519); test: Inhibition of ABL
[12] = target: T1, Tyrosine-protein kinase Lck; test: Inhibition of LCK in human Jurkat cells assessed as ZAP70 phosphorylation by FACS assay; format: cell-based
[13] = target: Tyrosine-protein kinase JAK3 (Homo sapiens, UniProt P52333); test: Inhibition of JAK3
[14] = target: Hepatocyte growth factor receptor (Homo sapiens, UniProt P08581); test: Inhibition of cMet
[15] = target: Tyrosine-protein kinase JAK2 (Homo sapiens, UniProt O60674); test: Inhibition of JAK2
[16] = Inhibition of cABL T315 mutant
[17] = Volume of distribution in rat; format: ADME, organism-based; conditions: in vivo
[18] = target: RAC-alpha serine/threonine-protein kinase (Homo sapiens, UniProt P31749); test: Inhibition of PKBalpha
[19] = target: Tyrosine-protein kinase JAK1 (Homo sapiens, UniProt P23458); test: Inhibition of JAK1
[20] = target: Cyclin-dependent kinase 2/cyclin A (Homo sapiens, UniProt P24941); test: Inhibition of CDK2/cyclinA; format: protein-complex assay
Mus musculus [21] = test: Immunosuppressive activity in BALB/c mouse assessed as concanavalin A-induced T cell activation at 100 mg/kg, po relative to control; format: functional, organism-based; parameters: dose 100 mg/kg
[22] = Oral bioavailability in rat; format: ADME, organism-based; conditions: in vivo
[23] = target: Insulin-like growth factor 1 receptor (Homo sapiens, UniProt P08069); test: Inhibition of IGF1R
Insulin receptor = Insulin receptor (Homo sapiens, UniProt P06213); test: Inhibition of INSR
Mus musculus [24] = test: Immunosuppressive activity in BALB/c mouse assessed as CD3 antibody-induced IL2 production at 100 mg/kg, po relative to control; format: functional
[25] = target: Proto-oncogene tyrosine-protein kinase receptor Ret (Homo sapiens, UniProt P07949); test: Inhibition of Ret
[26] = Clearance in rat; format: ADME, organism-based; conditions: in vivo
Mus musculus [27] = test: Immunosuppressive activity in BALB/c mouse assessed as CD3 antibody-induced IL2 production at 10 mg/kg, po relative to control; format: functional
Angiopoietin-1 receptor = Angiopoietin-1 receptor (Homo sapiens, UniProt Q02763); test: Inhibition of tie2
[28] = target: Receptor tyrosine-protein kinase erbB-2 (Homo sapiens, UniProt P04626); test: Inhibition of Her2
[29] = target: ALK tyrosine kinase receptor (Homo sapiens, UniProt Q9UM73); test: Inhibition of Alk

SMILES: CN1CCN(c2ccc(-c3cnn4c(N)c(-c5ccc(NC(=O)NCC6CCCCC6)cc5)cnc34)cc2)CC1
- IC50 [1]: 21 nM
- IC50 [2]: 143 nM

SMILES: CN1CCN(c2ccc(-c3cnn4c(N)c(-c5ccc(NC(=O)N(C)C6CCCCC6)cc5)cnc34)cc2)CC1
- IC50 [3]: 435 nM
- IC50 [1]: 178 nM
- IC50 [2]: 497 nM

SMILES: CN1CCN(c2cccc(-c3cnn4c(N)c(-c5ccc(NC(=O)NCC6CCCCC6)cc5)cnc34)c2)CC1
- IC50 [3]: 130 nM
- IC50 [1]: 70 nM
- IC50 [2]: 227 nM

SMILES: CN1CCN(c2ccc(-c3cnn4c(N)c(-c5ccc(NC(=O)c6ccc(C(F)(F)F)cc6)cc5)cnc34)cc2)CC1
- IC50 [3]: 8300 nM
- IC50 [1]: 256 nM
- IC50 [2]: 1000 nM

SMILES: CC(C)COC(=O)Nc1ccc(-c2cnc3c(-c4cccc(N5CCOCC5)c4)cnn3c2N)cc1
- IC50 [4]: 699 nM
- IC50 [3]: 7350 nM
- IC50 [1]: > 1000 nM
- IC50 [2]: > 1000 nM

SMILES: CN1CCN(c2cccc(-c3cnn4c(N)c(-c5ccc(O)cc5)cnc34)c2)CC1
- IC50 [4]: 30 nM
- IC50 [3]: 470 nM
- IC50 [1]: 342 nM
- IC50 [2]: 442 nM

SMILES: COCCN1CCN(c2ccc(-c3cnn4c(N)c(-c5ccc(NC(=O)OCC(C)C)cc5)cnc34)cc2)CC1
- IC50 [4]: 37 nM
- IC50 [3]: 2200 nM
- IC50 [1]: 349 nM
- IC50 [2]: 1000 nM

SMILES: CC(C)COC(=O)Nc1ccc(-c2cnc3c(-c4cccc(N5CCN(S(C)(=O)=O)CC5)c4)cnn3c2N)cc1
- IC50 [4]: 209 nM
- IC50 [3]: > 10000 nM
- IC50 [1]: 676 nM
- CL (Liver microsomes): 58.4 µL/min
- half-life (in vitro): 23.7 min
- IC50 [2]: > 1000 nM

SMILES: COc1cc(-c2cnc3c(-c4cccc(N5CCN(C)CC5)c4)cnn3c2N)ccc1NC(=O)OCC(C)C
- IC50 [4]: 546 nM
- IC50 [3]: 9200 nM
- IC50 [1]: > 1000 nM
- IC50 [2]: > 1000 nM

SMILES: CN1CCN(c2ccc(-c3cnn4c(N)c(-c5ccc(NC(=O)Nc6ccccc6Cl)cc5)cnc34)cc2)CC1
- IC50 [1]: 215 nM
- IC50 [2]: > 1000 nM

SMILES: CN1CCN(c2cccc(-c3cnn4c(N)c(-c5ccc(NC(=O)Oc6ccccc6)cc5)cnc34)c2)CC1
- IC50 [3]: 4100 nM
- IC50 [1]: 193 nM
- IC50 [2]: 688 nM

SMILES: CC(C)COC(=O)Nc1ccc(-c2cnc3c(-c4cccc(N5CCN(C(=O)CN)CC5)c4)cnn3c2N)cc1
- IC50 [4]: 7 nM
- IC50 [3]: 1900 nM
- IC50 [1]: 270 nM
- CL (Liver microsomes): 11.2 µL/min
- half-life (in vitro): 124 min
- IC50 [2]: 762 nM

SMILES: CN1CCN(c2ccc(-c3cnn4c(N)c(-c5ccc(NC(=O)CCC6CCCC6)cc5)cnc34)cc2)CC1
- IC50 [3]: 1020 nM
- IC50 [1]: 14 nM
- IC50 [2]: 142 nM

SMILES: Cc1nn2c(N)c(-c3cccc(O)c3)cnc2c1-c1ccc(N2CCN(C)CC2)cc1
- IC50 [4]: > 1000 nM
- IC50 [3]: 500 nM
- IC50 [1]: > 1000 nM
- IC50 [2]: > 1000 nM

SMILES: CN1CCN(c2cccc(-c3cnn4c(N)c(-c5ccc(NC(=O)c6ccc(C(F)(F)F)cc6)cc5)cnc34)c2)CC1
- IC50 [3]: 2300 nM
- IC50 [1]: 295 nM
- IC50 [2]: > 1000 nM

SMILES: CN1CCN(c2ccc(-c3cnn4c(N)c(-c5cccc(O)c5)cnc34)cc2)CC1
- IC50 [4]: 8 nM
- IC50 [3]: 96 nM
- IC50 [1]: 8 nM
- IC50 [2]: 2 nM

SMILES: CN1CCN(c2ccc(-c3cnn4c(N)c(-c5ccc(O)cc5)cnc34)cc2)CC1
- IC50 [4]: 36 nM
- IC50 [3]: 1300 nM
- IC50 [1]: 85 nM
- IC50 [2]: 396 nM

SMILES: CN1CCN(c2cccc(-c3cnn4c(N)c(-c5ccc(NS(=O)(=O)c6cccc(Cl)c6Cl)cc5)cnc34)c2)CC1
- IC50 [4]: 28 nM
- IC50 [3]: 5400 nM
- IC50 [1]: > 1000 nM
- IC50 [2]: > 1000 nM

SMILES: CC(C)COC(=O)Nc1ccc(-c2cnc3c(-c4cccc(N5CCN(C)CC5)c4)cnn3c2N)cc1
- IC50 [3]: 5350 nM
- IC50 [1]: 594 nM
- CL (Liver microsomes): 612.5 µL/min
- half-life (in vitro): 2.3 min
- IC50 [2]: 1710 nM

SMILES: CN1CCN(c2cccc(-c3cnn4c(N)c(-c5ccc(NC(=O)N(C)C6CCCCC6)cc5)cnc34)c2)CC1
- IC50 [3]: 6000 nM
- IC50 [1]: 110 nM
- IC50 [2]: 554 nM

SMILES: CC(C)COC(=O)Nc1ccc(-c2cnc3c(-c4ccc(N5CCN(C)CC5)cc4)cnn3c2N)cc1
- inhibition in vivo at 30 mg/kg (Mus musculus [5]): 21%
- IC50 [6]: > 10 µM
- IC50 [7]: > 10 µM
- IC50 [8]: 89 nM
- IC50 [9]: 74 nM
- half-life [10]: 342 min
- IC50 [11]: 40 nM
- IC50 [4]: 22 nM
- IC50 [12]: 107 nM
- IC50 [13]: > 10 µM
- IC50 [14]: > 10 µM
- IC50 [15]: > 10 µM
- IC50 [3]: 4230 nM
- IC50 [1]: 181 nM
- IC50 [16]: 3.25 µM
- Vd [17]: 6.42 L/kg
- CL (Liver microsomes): 161.2 µL/min
- half-life (in vitro): 8.6 min
- IC50 [18]: > 10 µM
- IC50 [19]: > 10 µM
- IC50 [20]: > 10 µM
- IC50 [2]: 662 nM
- Activity (Mus musculus [21]): Active
- bioavailability [22]: 95%
- IC50 [23]: > 10 µM
- IC50 (Insulin receptor): > 10 µM
- inhibition in vivo at 100 mg/kg (Mus musculus [24]): 57%
- IC50 [25]: 4.7 µM
- clearance [26]: 32.1 mL/min/kg
- inhibition in vivo at 10 mg/kg (Mus musculus [27]): -7%
- IC50 (Angiopoietin-1 receptor): 1000 nM
- IC50 [28]: > 10 µM
- IC50 [29]: > 10 µM

SMILES: CN1CCN(c2ccc(-c3cnn4c(N)c(-c5ccc(NC(=O)Oc6ccccc6)cc5)cnc34)cc2)CC1
- IC50 [3]: 1000 nM
- IC50 [1]: 88 nM
- IC50 [2]: 394 nM

SMILES: CN1CCN(c2cccc(-c3cnn4c(N)c(-c5ccc(NC(=O)CCC6CCCC6)cc5)cnc34)c2)CC1
- IC50 [3]: 690 nM
- IC50 [1]: 37 nM
- IC50 [2]: 135 nM

SMILES: CN1CCN(c2cccc(-c3cnn4c(N)c(-c5ccc(NC(=O)Nc6ccccc6Cl)cc5)cnc34)c2)CC1
- IC50 [1]: 172 nM
- IC50 [2]: 1000 nM

SMILES: Cc1nc2c(-c3cccc(N4CCN(C)CC4)c3)cnn2c(N)c1-c1ccc(NC(=O)OCC(C)C)cc1
- IC50 [4]: 116 nM
- IC50 [3]: > 10000 nM
- IC50 [1]: > 1000 nM
- IC50 [2]: > 1000 nM

SMILES: Cc1cc(NC(=O)OCC(C)C)ccc1-c1cnc2c(-c3cccc(N4CCN(C)CC4)c3)cnn2c1N
- IC50 [4]: 23 nM
- IC50 [3]: 3400 nM
- IC50 [1]: 456 nM
- IC50 [2]: 462 nM

SMILES: CC(C)COC(=O)Nc1ccc(-c2cnc3c(-c4cccc(N5CCNCC5)c4)cnn3c2N)cc1
- IC50 [4]: 7 nM
- IC50 [3]: 2100 nM
- IC50 [1]: 310 nM
- CL (Liver microsomes): 29 µL/min
- half-life (in vitro): 48 min
- IC50 [2]: 642 nM

Source: ChEMBL document CHEMBL1158604, “New pyrazolo[1,5a]pyrimidines as orally active inhibitors of Lck” (Bioorg Med Chem Lett, 2010)
